# Test results published in EP0579202A1, “Sulfhydryl-complexing agents in clinical test elements” (Johnson & Johnson Clinical Diagnostics, Inc., priority 1992, dated 1994).
# What was measured:
# [1] = Dry salicylate element with blocking agent in the spreading layer (Example 1); settings: for reducing sulfhydryl interference: salicylate element; for Salicylate Prediction of Fluid Fluid B: serum with 40 mg/dL salicylate and 100 mg/dL NAC; for Salicylate Prediction of Fluid Fluid B / Salicylate Prediction of Fluid Fluid C / Salicylate Prediction of Fluid Fluid A: agent in spreading layer at given g/m²; for Salicylate Prediction of Fluid Fluid C / Salicylate Prediction of Fluid Fluid A: serum with 40 mg/dL salicylate; for Salicylate Prediction of Fluid Fluid C: one hour exposure to stopper containing 2-benzothiazolethiol; for Salicylate Prediction of Fluid Fluid A: 540 nm, 5 minute, 37°C
# Description: In this example, a dry analytical element formulated for measuring salicylate was used. […] A series of serum samples containing known levels of salicylate were spotted on the various test elements. Absorbance was measured at 540 nm after a 5 minute incubation at 37°C. From this series, a relationship between element absorbance and salicylate level could be made.
# Serum samples containing 40 mg/dL of salicylate (Fluid A) and either 100 mg/dL of NAC (Fluid B) or a one hour exposure to a stopper containing 2-benzothiazolethiol (Fluid C) were then spotted on the elements and their predicted salicylate levels determined.
# [2] = Salicylate element with and without silver nitrate (Example 3)
# Description: Standard elements (without blocking reagent) were spotted with solutions containing human serum spiked with salicylate in concentrations between 0 and 60 mg/dL. After a 5 minute incubation at 37°C the reflectance density was measured at 540 nm. Predicted salicylate concentration can be determined by fitting a response curve through the reflectance densities produced.
# [3] = Screening of sulfhydryl-blocking reagents for NAC interference in the standard SOX solution assay; format: biochemical; settings: more NAC than N-ethyl maleimide
# Description: (§1) A standard SOX reaction solution can be prepared containing in 1 mL; 100 mM TRIS-C1, pH 7.75, 200 mM sarcosine, 1.5 mM 4-AAP, 0.02% (by weight) phenol, and 5.9 Units peroxidase. All reagents are combined in the assay cuvette and incubated at 37°C for 10 minutes after which time 1 Unit/mL SOX is added to the solution to initiate reaction. Reactions are observed spectrophotometrically at 505 nm; millimolar extinction coefficient is 17.4.
# A variety of materials were selected as examples of reagents that might complex with (bind) the sulfhydryl group of NAC and thus block interference. […] One group contains materials not effective under the conditions tested; a second group appeared to minimize NAC interference, but adversely affected the assay. For example, the solution became gel-like or color formation was impaired. It is possible that this group of materials would be effective if they were incorporated apart from the detection chemistry, for example, either attached to beads or polymers or in a separate layer in a multilayer slide format.
# The third group contains materials that effectively eliminated NAC interference and had no effect on dye formation or enzyme rate. In each case, the blocking reagent alone (set d) had no effect on the detection system. When this group of blocking reagents and NAC were included in the reaction cuvette, SOX reaction rates improved markedly. […]
# horse radish peroxidase = biological target: T1, horse radish peroxidase (Armoracia rusticana, UniProt P00433); test: Effect of NAC on peroxidase activity (o-dianisidine dye formation); format: biochemical; settings: 1 mM NAC in reaction mixture; 37°C; 430 nm
# T1 sequence (P00433 31-338): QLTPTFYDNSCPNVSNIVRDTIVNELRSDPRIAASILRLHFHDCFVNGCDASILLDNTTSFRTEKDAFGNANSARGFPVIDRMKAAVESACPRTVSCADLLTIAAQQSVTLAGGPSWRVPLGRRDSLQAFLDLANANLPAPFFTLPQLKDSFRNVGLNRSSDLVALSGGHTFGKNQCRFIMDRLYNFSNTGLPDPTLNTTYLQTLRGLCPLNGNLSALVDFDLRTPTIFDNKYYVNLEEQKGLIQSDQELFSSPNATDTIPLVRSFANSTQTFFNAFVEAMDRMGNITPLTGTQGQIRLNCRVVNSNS
# Description: One mL reaction solution was prepared containing 100 mM TRIS-C1, pH 7.75, 0.88 mM H₂O₂, and 0.157 mM o-dianisidine. All reagents were combined in the assay cuvette and incubated at 37°C for 10 minutes after which time 0.59 Unit of horse radish peroxidase was added to the solution to initiate reaction. Reactions were monitored spectrophotometrically at 430 nm; millimolar extinction coefficient was 11.3.
# [4] = Effect of NAC on preformed indicator dye in the SOX reaction (bleaching); settings: for Final absorbances: 505 nm
# Description: as §1
# When determining the effect of NAC on SOX activity, the standard test described above is carried out except that to allow the reaction to go to completion before NAC is added, only 0.1 mM sarcosine is added. Thus, we ensured that all color formation was complete (the sarcosine being depleted). Indicator dye formed in four cuvettes when SOX was added; absorbance endpoint was 1,800. NAC then was added to the cuvettes to the final concentration of 0, 1, 2.5 or 10 mM, and the changes in absorption monitored. Rapidly (less than 10 seconds) each cuvette containing MAC lost color, proportional to MAC concentration. Final absorbances were 1.880, 1.100, 0.600 and 0.150 for cuvette containing 0, 1, 2.5 or 10 mM NAC, respectively.
# [5] = Placement of the blocking reagent in the dry salicylate element (Example 2); settings: Serum w/ Salicylate w/ 100mg/dL N-acetyl cysteine; no blocking reagent
# Excerpt: Placement of the blocking reagent in the proper layer of the dry element is essential for stability. In this example, we placed the blocking reagent (0.5 g/m² of maleimide) in the spreading layer of one element, a location that is relatively hydrophobic in nature, and in the reagent layer of another element. […]
# [6] = Acetaminophen element with and without maleimide (Example 4); settings: n-acetylcysteine at 100 mg/dL
# Description: This example is similar to Example 3 except that the analyte is acetaminophen and the element used for testing is the one shown in Table VII below.
# Human serum spiked with acetaminophen varying in concentration between 1 and 294 mg/dL were spotted on the standard element and the element of the invention. After incubating for 5 minutes at 37°C, reflectance density was measured at 670 nm. Predictions of acetaminophen concentration were obtained as was done for salicylate concentration in Example 3. Differences between the predicted values and the values actually obtained from the two elements (standard and the invention) are shown in Table VIII.
compound,measurement,setting,value
Silver Nitrate,reducing sulfhydryl interference,[1],work well
same,Salicylate Prediction of Fluid Fluid B,[1],40 mg/dL
same,Salicylate Prediction of Fluid Fluid C,[1],40 mg/dL
same,Salicylate Prediction of Fluid Fluid A,[1],40 mg/dL
same,"bias, Std w/ AgNO3","[2]; Salicylate at 15 mg/dL, 1 hour contact w/ rubber stoppers containing 2-benzothiazolethiol, 0.4 g/m² silver nitrate",0.3 mg/dL bias
same,"bias, Std w/ AgNO3","[2]; Salicylate at 15 mg/dL, n-acetylcysteine at 102 mg/dL, 0.4 g/m² silver nitrate in spreading layer",-0.01 mg/dL bias
same,"bias, Std w/ AgNO3","[2]; Salicylate at 40 mg/dl, 1 hour contact w/ rubber stoppers containing 2-benzothiazolethiol, 0.4 g/m² silver nitrate",0.3 mg/dL bias
same,"bias, Std w/ AgNO3","[2]; Salicylate at 40 mg/dl, n-acetylcysteine at 102 mg/dL, 0.4 g/m² silver nitrate",-1.2 mg/dL bias
Gold Chloride,reducing sulfhydryl interference,[1],work well
same,Salicylate Prediction of Fluid Fluid B,[1],40 mg/dL
same,Salicylate Prediction of Fluid Fluid C,[1],40 mg/dL
same,Salicylate Prediction of Fluid Fluid A,[1],40 mg/dL
CCN1C(=O)C=CC1=O [N-ethyl-maleimide],enzyme rate,[3],no improvement in enzyme rate is observed
NC(=O)CI [Iodoacetamide],Salicylate Prediction of Fluid Fluid B,[1],12 mg/dL
same,Salicylate Prediction of Fluid Fluid C,[1],42 mg/dL
same,Salicylate Prediction of Fluid Fluid A,[1],40 mg/dL
"CC(=O)N[C@@H](CS)C(=O)O [NAC, N-acetyl cysteine]","peroxidase activity, as monitored by dye formation",horse radish peroxidase,significantly inhibited
same,Final absorbances,[4]; 1 mM NAC added after colour formation complete,1.100
same,Final absorbances,[4]; 2.5 mM NAC added after colour formation complete,0.600
same,Final absorbances,[4]; 10 mM NAC added after colour formation complete,0.150
same,time in which cuvette lost color,"[4]; cuvettes with 1, 2.5 or 10 mM NAC",less than 10 seconds
same,"salicylate prediction, Standard Element",[5],0.0 mg/dL
same,"bias, Standard element","[2]; Salicylate at 15 mg/dL, n-acetylcysteine at 102 mg/dL",-11.32 mg/dL bias
same,"bias, Standard element","[2]; Salicylate at 40 mg/dl, n-acetylcysteine at 102 mg/dL",-40 mg/dL bias
same,"bias, Standard element",[6]; Acetaminophen at 1 mg/dL,-1.0 mg/dL bias
same,"bias, Standard element",[6]; Acetaminophen at 52 mg/dl,-52 mg/dL bias
same,"bias, Standard element",[6]; Acetaminophen at 202 mg/dL,-200 mg/dL bias
Sc1nc2ccccc2s1 [2-benzothiazolethiol],"bias, Standard element","[2]; Salicylate at 15 mg/dL, 1 hour contact w/ rubber stoppers containing 2-benzothiazolethiol",-12.9 mg/dL bias
same,"bias, Standard element","[2]; Salicylate at 40 mg/dl, 1 hour contact w/ rubber stoppers containing 2-benzothiazolethiol",-31.5 mg/dL bias
Fe(NO)₃,Salicylate Prediction of Fluid Fluid B,[1],0.0 mg/dL
same,Salicylate Prediction of Fluid Fluid C,[1],17 mg/dL
same,Salicylate Prediction of Fluid Fluid A,[1],40 mg/dL
